Data taken from patent US20090176817A1, “Method of Treatment of Diarrhea-Predominant Irritable Bowel Syndrome in a Subject” (priority 2005, published 2009).

System: diarrhea-predominant IBS subjects
Assay: Study S241.3.009: weekly diary questions on adequate relief
Assay type: in vivo, human
Conditions: for Responder rate, adequate relief of abnormal bowel habits / Responder rate, adequate relief of IBS symptoms / Responder rate, adequate relief of abdominal pain/discomfort: monthly LOCF imputation; for Responder rate, adequate relief of abnormal bowel habits / Overall responder rate, adequate relief of IBS symptoms / Overall responder rate, adequate relief of abdominal pain/discomfort / Overall responder rate, adequate relief of abnormal bowel habits / Number of months a subject was a responder: One month (Abdominal pain/discomfort) / Number of months a subject was a responder: One month (Abnormal bowel habits) / Number of months a subject was a responder: One month (IBS symptoms) / Number of months a subject was a responder: Three months (Abdominal pain/discomfort) / Number of months a subject was a responder: Three months (Abnormal bowel habits) / Number of months a subject was a responder: Three months (IBS symptoms) / Number of months a subject was a responder: Two months (Abdominal pain/discomfort) / Number of months a subject was a responder: Two months (Abnormal bowel habits) / Number of months a subject was a responder: Two months (IBS symptoms) / Number of months a subject was a responder: Zero months (Abdominal pain/discomfort) / Number of months a subject was a responder: Zero months (Abnormal bowel habits) / Number of months a subject was a responder: Zero months (IBS symptoms) / Responder rate, adequate relief of IBS symptoms / Responder rate, adequate relief of abdominal pain/discomfort: ITT, 2 mg TID; for Overall responder rate, adequate relief of IBS symptoms / Overall responder rate, adequate relief of abdominal pain/discomfort / Overall responder rate, adequate relief of abnormal bowel habits: 26-week treatment period, observed case; for Number of months a subject was a responder: One month (Abdominal pain/discomfort) / Number of months a subject was a responder: One month (Abnormal bowel habits) / Number of months a subject was a responder: One month (IBS symptoms) / Number of months a subject was a responder: Three months (Abdominal pain/discomfort) / Number of months a subject was a responder: Three months (Abnormal bowel habits) / Number of months a subject was a responder: Three months (IBS symptoms) / Number of months a subject was a responder: Two months (Abdominal pain/discomfort) / Number of months a subject was a responder: Two months (Abnormal bowel habits) / Number of months a subject was a responder: Two months (IBS symptoms) / Number of months a subject was a responder: Zero months (Abdominal pain/discomfort) / Number of months a subject was a responder: Zero months (Abnormal bowel habits) / Number of months a subject was a responder: Zero months (IBS symptoms): monthly LOCF
Description: Study S241.3.009 was a Phase III, a double-blind, placebo-controlled, randomized, multinational study to investigate the safety and efficacy of 2 mg TID of cilansetron over 26 weeks in diarrhea-predominant IBS subjects. The study was conducted in 146 multinational study centers. A total of 1307 subjects consented to participate, and 806 subjects were randomized. A total of 792 subjects were analyzed for efficacy and 799 subjects were analyzed for safety. Diagnosis and main criteria for inclusion were IBS subjects satisfying the Rome I criteria (1992); the diarrhea-predominant sub-population of the Rome II criteria; and a minimum abdominal pain/discomfort, stool frequency and consistency determined during the run-in period. Subjects were treated with cilansetron 2 mg tablets given orally TID or matching placebo tablets given orally TID for 26 weeks.
The primary efficacy parameter was the overall response rate for IBS symptoms, based on the weekly question concerning adequate relief of IBS symptoms (abdominal pain/discomfort, abnormal bowel habits) over the 26 weeks period. A responder was a subject who responded “yes” at least 50% of the time during his/her treatment period, with minimum treatment duration of four weeks. The two main secondary efficacy parameters were overall responder rate based on the weekly question on adequate relief of abdominal pain/discomfort and abnormal bowel habits during the 26-week treatment period. The onset of action of cilansetron was also examined using daily diary data (stool frequency, and ratings of urgency and severity) during the initial 8 weeks of trial participation. An additional key secondary efficacy parameter was the number of months (one month equals four weeks) up to six months (24-weeks) that a subject was a responder for IBS symptoms, where a responder was defined as a subject who answered the weekly question with “yes” at least twice for that month. The responder rate for the weekly diary questions on adequate relief at each month and all months, the adequate relief rate, the number of subjects with adequate relief by week, daily diary questions, IBS-QOL scores, and the interruption of activities were also assessed. Safety was evaluated by physical examination, ECG, vital signs, laboratory evaluations, concomitant medications, and AEs.
Studies S24 1.3.OO6, S24 1.3.0 1 1, and S24 1.3.009 used the following efficacy measurements: • The subjects answered the following three questions with “yes” or “no” using a phone diary at the end of each week: • a) During the last week, did you experience adequate relief of your IBS symptoms, such as abdominal pain, abdominal discomfort, abnormal bowel habits? • b) During the last week, did you experience adequate relief of your abdominal pain and/or discomfort? • c) During the last week, did you experience adequate relief of your abnormal bowel habits? • The subjects rated the following symptoms using the phone diary at the end of each day: • abdominal pain/discomfort (five-point scale); • stool consistency (seven-point Bristol Stool Scale); • stool frequency (number of bowel movements each day); • urgency (five-point scale); • straining (yes or no); • feeling of incomplete defecation (yes or no); • bloating or feeling of abdominal distension (five-point scale). • In Studies S241 A006 and S241.3.009, subjects completed the IBS-QOL Survey at Baseline (Day 1) and at the end of treatment. In Study S24 1.3.0 1 1, subjects completed the IBS-QOL Survey at Baseline (Day 1), at the end of the three-month treatment period, and at the end of rerandomized treatment.
In all three pivotal efficacy studies, the primary and main secondary efficacy parameters were based on the weekly diary questions on adequate relief and included the following: • 1. Number of months (one month equals four weeks) that a subject was a responder for the weekly diary questions on adequate relief. […]

Which “Responder rate, adequate relief of abnormal bowel habits” value (Each month of Months 4 to 6) does the source give for `Cc1nccn1C[C@H]1CCc2c(c3cccc4c3n2CCC4)C1=O` [Cilansetron, (R)-(−)-4,5,6,8,9,10-hexahydro-10-[(2-methyl-1H-imidazol-1-yl)methyl]-11H-pyrido-[3,2,1-jk]-carbazol-11-one] here?
Its value is 204 (52) n (%).

What about the “Overall responder rate, adequate relief of IBS symptoms” value (Female subjects) of the same compound?
Its value is 132 (63) n (%).

And the “Overall responder rate, adequate relief of abdominal pain/discomfort” value (Female subjects)?
Its value is 133 (64) n (%).

And the “Overall responder rate, adequate relief of abnormal bowel habits” value (Female subjects)?
Its value is 141 (67) n (%).

And the “Number of months a subject was a responder: One month (Abdominal pain/discomfort)” value (Female subjects, Months 1 to 3)?
The value was 30 (14) n (%).

What about the “Number of months a subject was a responder: One month (Abnormal bowel habits)” value (Female subjects, Months 1 to 3) of the same compound?
The value was 25 (12) n (%).

What about the “Number of months a subject was a responder: One month (IBS symptoms)” value (Female subjects, Months 1 to 3) of the same compound?
The value was 28 (13) n (%).

And the “Number of months a subject was a responder: Three months (Abdominal pain/discomfort)” value (Female subjects, Months 1 to 3)?
Its value is 93 (44) n (%).

And the “Number of months a subject was a responder: Three months (Abnormal bowel habits)” value (Female subjects, Months 1 to 3)?
Its value is 91 (44) n (%).

What about the “Number of months a subject was a responder: Three months (IBS symptoms)” value (Female subjects, Months 1 to 3) of the same compound?
Its value is 82 (39) n (%).

What about the “Number of months a subject was a responder: Two months (Abdominal pain/discomfort)” value (Female subjects, Months 1 to 3) of the same compound?
The value was 36 (17) n (%).

What about the “Number of months a subject was a responder: Two months (Abnormal bowel habits)” value (Female subjects, Months 1 to 3) of the same compound?
The value was 49 (23) n (%).

And the “Number of months a subject was a responder: Two months (IBS symptoms)” value (Female subjects, Months 1 to 3)?
The value was 47 (22) n (%).

What about the “Number of months a subject was a responder: Zero months (Abdominal pain/discomfort)” value (Female subjects, Months 1 to 3) of the same compound?
Its value is 50 (24) n (%).

What about the “Number of months a subject was a responder: Zero months (Abnormal bowel habits)” value (Female subjects, Months 1 to 3) of the same compound?
The value was 44 (21) n (%).

What about the “Number of months a subject was a responder: Zero months (IBS symptoms)” value (Female subjects, Months 1 to 3) of the same compound?
Its value is 52 (25) n (%).

And the “Overall responder rate, adequate relief of IBS symptoms” value (Male subjects)?
The value was 102 (55) n (%).

What about the “Overall responder rate, adequate relief of abdominal pain/discomfort” value (Male subjects) of the same compound?
Its value is 106 (57) n (%).

And the “Overall responder rate, adequate relief of abnormal bowel habits” value (Male subjects)?
Its value is 112 (60) n (%).

What about the “Number of months a subject was a responder: One month (Abdominal pain/discomfort)” value (Male subjects, Months 1 to 3) of the same compound?
Its value is 31 (17) n (%).

What about the “Number of months a subject was a responder: One month (Abnormal bowel habits)” value (Male subjects, Months 1 to 3) of the same compound?
Its value is 24 (13) n (%).

What about the “Number of months a subject was a responder: One month (IBS symptoms)” value (Male subjects, Months 1 to 3) of the same compound?
The value was 27 (15) n (%).

And the “Number of months a subject was a responder: Three months (Abdominal pain/discomfort)” value (Male subjects, Months 1 to 3)?
The value was 66 (35) n (%).

And the “Number of months a subject was a responder: Three months (Abnormal bowel habits)” value (Male subjects, Months 1 to 3)?
Its value is 74 (40) n (%).

And the “Number of months a subject was a responder: Three months (IBS symptoms)” value (Male subjects, Months 1 to 3)?
Its value is 68 (37) n (%).

And the “Number of months a subject was a responder: Two months (Abdominal pain/discomfort)” value (Male subjects, Months 1 to 3)?
The value was 34 (18) n (%).

What about the “Number of months a subject was a responder: Two months (Abnormal bowel habits)” value (Male subjects, Months 1 to 3) of the same compound?
The value was 34 (18) n (%).

And the “Number of months a subject was a responder: Two months (IBS symptoms)” value (Male subjects, Months 1 to 3)?
The value was 33 (18) n (%).

What about the “Number of months a subject was a responder: Zero months (Abdominal pain/discomfort)” value (Male subjects, Months 1 to 3) of the same compound?
The value was 55 (30) n (%).

What about the “Number of months a subject was a responder: Zero months (Abnormal bowel habits)” value (Male subjects, Months 1 to 3) of the same compound?
Its value is 54 (29) n (%).

And the “Number of months a subject was a responder: Zero months (IBS symptoms)” value (Male subjects, Months 1 to 3)?
Its value is 58 (31) n (%).

And the “Responder rate, adequate relief of IBS symptoms” value (Month 1)?
The value was 193 (49) n (%).

What about the “Responder rate, adequate relief of abdominal pain/discomfort” value (Month 1) of the same compound?
Its value is 199 (50) n (%).

And the “Responder rate, adequate relief of abnormal bowel habits” value (Month 1)?
Its value is 214 (54) n (%).

What about the “Responder rate, adequate relief of IBS symptoms” value (Month 2) of the same compound?
Its value is 233 (59) n (%).

And the “Responder rate, adequate relief of abdominal pain/discomfort” value (Month 2)?
The value was 237 (60) n (%).

What about the “Responder rate, adequate relief of abnormal bowel habits” value (Month 2) of the same compound?
The value was 245 (62) n (%).

And the “Responder rate, adequate relief of IBS symptoms” value (Month 3)?
Its value is 239 (61) n (%).

What about the “Responder rate, adequate relief of abdominal pain/discomfort” value (Month 3) of the same compound?
Its value is 242 (61) n (%).

What about the “Responder rate, adequate relief of abnormal bowel habits” value (Month 3) of the same compound?
The value was 251 (64) n (%).

What about the “Responder rate, adequate relief of IBS symptoms” value (Month 4) of the same compound?
Its value is 237 (60) n (%).

And the “Responder rate, adequate relief of abdominal pain/discomfort” value (Month 4)?
Its value is 241 (61) n (%).

What about the “Responder rate, adequate relief of abnormal bowel habits” value (Month 4) of the same compound?
The value was 245 (62) n (%).

And the “Responder rate, adequate relief of IBS symptoms” value (Month 5)?
The value was 237 (60) n (%).

And the “Responder rate, adequate relief of abdominal pain/discomfort” value (Month 5)?
Its value is 242 (61) n (%).

What about the “Responder rate, adequate relief of abnormal bowel habits” value (Month 5) of the same compound?
The value was 247 (63) n (%).

What about the “Responder rate, adequate relief of IBS symptoms” value (Month 6) of the same compound?
Its value is 233 (59) n (%).

And the “Responder rate, adequate relief of abdominal pain/discomfort” value (Month 6)?
The value was 237 (60) n (%).

What about the “Responder rate, adequate relief of abnormal bowel habits” value (Month 6) of the same compound?
Its value is 243 (62) n (%).

And the “Median adequate relief rate, IBS symptoms” value (Months 1 to 3)?
Its value is 0.58.

And the “Median adequate relief rate, abdominal pain/discomfort” value (Months 1 to 3)?
Its value is 0.58.

What about the “Median adequate relief rate, abnormal bowel habits” value (Months 1 to 3) of the same compound?
The value was 0.67.

And the “Overall responder rate, abdominal pain/discomfort” value (Months 1 to 3)?
The value was 56%.

What about the “Overall responder rate, abnormal bowel habits” value (Months 1 to 3) of the same compound?
The value was 62%.

And the “Overall responder rate, IBS symptoms” value (Months 1 to 3, observed case)?
The value was 55%.

What about the “Median adequate relief rate, IBS symptoms” value (Months 1 to 6) of the same compound?
The value was 0.64.

What about the “Median adequate relief rate, abdominal pain/discomfort” value (Months 1 to 6) of the same compound?
The value was 0.63.

And the “Median adequate relief rate, abnormal bowel habits” value (Months 1 to 6)?
Its value is 0.70.

What about the “Overall responder rate difference vs placebo across diary questions” value (Romania) of the same compound?
The value was −29% to −8.

And the “Overall responder rate difference vs placebo, each diary question” value (South Africa)?
Its value is −23%.
